The record followed here is patent US10889575B2, “4,4-diphenylpiperidine compounds or pharmaceutically acceptable salts thereof, pharmaceutical compositions and uses thereof” (Academy of Military Medical Sciences, priority 2017, dated 2021).

In data set [1] the test system is acetic acid writhing in mice. The data set is described as follows: mouse acetic acid writhing model (analgesic effect). Type of data set: in vivo, Kunming mice. The settings on record: intragastric 30 mg/kg; for Writhing inhibition rate (%): 40 min before i.p. 0.6% acetic acid, writhings counted over 15 min. An excerpt:
1. Experimental purposes: To determine the analgesic activity of Compound (4) hydrochloride and Compounds (1), (2), (3), (5) in a mouse acetic acid writhing model.
2. Experimental materials: Kunming mice (18-22 g), half male and half female, were provided by the Experimental Animal Center of the Academy of Military Medical Sciences.
The mice were weighed and labeled, 10 mice in each group (half male and half female), the mice were divided into 7 groups, including 5 experimental groups (using Compound (4) hydrochloride, Compound (1), (2), (3), (5), respectively), positive control group (using NMED-160) and negative control group (using normal saline). Among them, NMED-160 used in the positive control group was a selective small molecule N-type calcium ion channel blocker, which had entered the phase II clinical trial and could be synthesized by referring to document^[11], and the structural formula thereof is as follows: […]
The mice were intragastrically administered with drug (30 mg/kg). After 40 minutes, 0.4 mL of 0.6% (v/v) acetic acid was intraperitoneally injected. After 5 minutes, the number of mouse writhings in the subsequent 15 minutes was recorded. The inhibition rate of the drug on the acetic acid writhing in mice was calculated according to the following formula, and the analgesic effect of the drug was evaluated.
A represents the number of writhings in the negative control group;
B represents the number of writhings in the experimental groups or the positive control group.

Data set [2] relates to N-type calcium ion channel (α1B/β1b/α2δ). The data set is described as follows: N-type calcium ion channel current suppression, two-electrode voltage clamp in Xenopus oocytes. Type of data set: cell-based. The settings on record: 10 μM. The protocol: To determine the current suppressing effects of Compound (4) hydrochloride and Compounds (1), (2), (3), (5) of the present invention on N-type calcium ion channel (α1B/β1b/α2δ) transiently expressed in Xenopus oocytes.
Plasmids α1B, α2δ, β1b were injected into Xenopus oocytes in concentration ratio of 1:1:1, and the total volume of the three plasmids injected into per cell was about 46 nL. The injected cells were placed in ND-96 medium at 18° C. for 48 hours, then the expressed current was recorded.
Perfusion administration method was adopted with a flow rate of 3 mL/min and a test drug concentration of 10 μM. Using two-electrode voltage clamp technique, the cell was clamped at −100 mV, stepped at 10 mV, depolarized to +60 mV, and the current was recorded.
Current inhibition rate (%)=100×(current amplitude after administration−current amplitude before administration)/current amplitude before administration
Background: Two-electrode voltage clamp is typically applied to oocytes expressing channels or transporters.

Data set [3] in a line: Evaluation of the central nervous system distribution in rats. Particulars: for Kp at 2 h: SD, rat.
The next data set is described as follows: in vivo. Particulars: SD, rat, iv.
The nature of data set [4]: Rapid evaluation of pharmacokinetics in rats. Type of data set: in vivo, SD rats. The protocol:
Compound (1) was dissolved in 25% (w/v) aqueous solution of hydroxypropyl-β-cyclodextrin;
Adult SD rats, 180-220 g in body weight, male, purchased from the Animal Center of the Academy of Military Medical Sciences, Animal Certificate SCXK-(Army)-2012-0004;
Six adult SD rats were randomly numbered, and divided into 2 groups to receive intravenous injection (i.v., 1.85 mg/kg) and oral administration (p.o., 11 mg/kg) of Compound (1), respectively; blood samples were collected at 0.1 mL before administration and 2 minutes, 5 minutes, 15 minutes, 30 minutes, 60 minutes, 2 hours, 4 hours, 7 hours and 24 hours after administration, placed in anticoagulation tubes, centrifuged for 15 minutes (3500 rpm) to separate plasma, and 0.05 mL plasma samples were accurately taken and frozen in a refrigerator at −30° C. for later tests.
To the 0.05 mL rat plasma sample, 0.3 mL of acetonitrile containing the internal standard substance megestrol (100 ng/mL) and 0.005 mL of blank acetonitrile were added, vortexed for 1 minute on a vortex mixer, and centrifuged for 10 minutes (14,000 g), about 0.15 mL of the supernatant was taken and placed into an injection vial, injected 5 μL to LC-MS/MS for detection and analysis by referring to the method of the above section 2. […] The results of 1 # to 3 # were averaged, the results of 4 # to 6 # were averaged, and the relationship curves of the average concentrations of Compound (1) in the rats of i.v. administration and in the rats of p.o. administration against time were obtained and shown in FIG. 2. The Winnolin pharmacokinetic software was used to analyze the measured data and calculate the main pharmacokinetic parameters, including the area under curve (AUC), clearance rate (CL), apparent distribution volume (V), terminal elimination half life (t1/2) and mean residence time (MRT) for the intravenous injection, as well as the area under curve (AUC), terminal elimination half life (t1/2), mean residence time (MRT), peak concentration (Cmax), time to peak (Tmax) and biological force (F) for the oral administration.

Setting [5] is: male, SD, rat, plasma, intravenous injection 1.85 mg/kg, n = 3.
Where [6] appears, read: male, SD, rat, plasma, oral administration 11 mg/kg, n = 3.

The structures appear in SMILES notation. Several values for one entry are separate records, joined by “and”; a condition that tells them apart may be missing. Equal values may be shown once. Where a name gives a salt, the structure may show the parent alone. Read-outs that look alike come from different tables or passages of the source.

Usually melting point stands for the temperature, or range, at which the solid turns liquid. What is called AUC is concentration integrated over time. The low end stands for low exposure, the high end for high exposure. In general, MRT refers to a mean duration of stay, worked out from the concentration-time curve. For orientation: clearance means the rate of elimination divided by the concentration. Usually half-life stands for how long it takes for the measured level to halve. A word on the Cmax: it is the maximum level reached in the sampled fluid or tissue. One may read the Tmax as the time at which the peak concentration occurs.

As for `O=C(CC(c1ccccc1)c1ccccc1)N1CCN(C(c2ccccc2)c2ccccc2)CC1` [NMED-160, reference compound], the “Writhing inhibition rate (%)” value in data set [1] stood at 51.75%.
In the case of `O=C(CCN1CCC(c2ccccc2)(c2ccccc2)CC1)c1ccc2[nH]c(=O)oc2c1` [Compound (1), 6-(3-(4,4-diphenylpiperidinyl)-propionyl)benzoxazolin-2-one], the melting point is 236 °C (dec.). For the same compound, in data set [2], the “Current inhibition rate (%)” value was 70.6%. Also, in data set [1], the “Writhing inhibition rate (%)” value is listed as 58.77%. In addition, the “analgesic effect (in words)” value in data set [1] (acetic acid writhing) was “comparable to that of NMED-160”. Further, the Kp at 2 h in data set [3] (brain/plasma, intravenous) came out at 3 ± 0.71. Also, the Kp at 2 h in data set [3] (in vivo) was in the range of 3 to 4. In data set [3] (spinal cord/plasma, intravenous), this compound came in with a Kp at 2 h of 3.7 ± 1.3. For the same compound, the “Concentration, Rat brain tissue” value in data set [3] (rats, i.v. bolus then instillation, 2 hours after administration, n = 3) came to 808.3 ± 233.8 ng/g. Besides, the concentration at 2 h in “in vivo” was 271 ng/mL and 998 ng/g. In addition, the “effect of liver metabolism on the clearance in vivo” value in data set [4] (i.v. clearance compared with rat liver blood flow (3.3 L/h/kg)) is “about 70%”. The V in data set [4] (intravenous injection 1.85 mg/kg, n = 3, 1.85 mg/kg) is 12.39 L/kg and 12.39 ± 3.17 L/kg. In data set [4] (setting [5]), this compound had an AUC of 750 ± 98.2 ng·h/mL, a mean residence time MRT of 3.87 ± 0.18 h, a clearance of 39.7 mL/min/kg and a half-life of 5 ± 0.88 h. Also, in data set [4] (setting [6]), the exposure (AUC) is 1670 ± 222 ng·h/mL, the peak concentration (Cmax) came out at 188 ± 28.5 ng/mL, the mean residence time (MRT) was found to be 5.6 ± 0.46 h and the half-life is 5.4 ± 1.5 h. For the same compound, in data set [4] (male, SD, rat, plasma, po, 11 mg/kg, oral administration 11 mg/kg, n = 3, read-out: Tmax), the Tmax lay in the range of 1 to 2 h. Further, the F in data set [4] (oral 11 mg/kg vs intravenous 1.85 mg/kg, n = 3) was 44.7% and 44.7 ± 5.93%. Besides, the Tmax in data set [4] (oral administration 11 mg/kg, n = 3, 11 mg/kg) is reported as 1.33 ± 0.58 h.
Regarding `CN(C)c1ccc(CN2CCC(c3ccccc3)(c3ccccc3)CC2)cc1` [Compound (3), 1-(4-dimethylaminobenzyl)-4,4-diphenylpiperidine], the melting point was in the range of 128 to 130 °C. In addition, the “Current inhibition rate (%)” value in data set [2] is 42.3%. Also, the “Writhing inhibition rate (%)” value in data set [1] stood at 23.17%.
`COc1cc(CN2CCC(c3ccccc3)(c3ccccc3)CC2)cc(OC)c1OC` (as salt: hydrochloride) had a melting point of 235 to 237 °C.
For `c1ccc(C2(c3ccccc3)CCN(Cc3cccs3)CC2)cc1` [Compound (5), 1-(2-methylthienyl)-4,4-diphenylpiperidine], the “Current inhibition rate (%)” value in data set [2] was 45.3%. Moreover, in data set [1], the “Writhing inhibition rate (%)” value is 46.87%.
On the same counts, the results for `O=C(CN1CCC(c2ccccc2)(c2ccccc2)CC1)c1ccc2[nH]c(=O)oc2c1` [Compound (2), 6-(3-(4,4-diphenylpiperidinyl)-acetyl)benzoxazolin-2-one] are 65.6% and 54.66%.
The like results for `COc1cc(CN2CCC(c3ccccc3)(c3ccccc3)CC2)cc(OC)c1OC.Cl` [Compound (4) hydrochloride, 1-(3,4,5-trimethoxybenzyl)-4,4-diphenylpiperidine hydrochloride] were, in that order, 54.1% and 39.68%.
